Source: paper PMC7672424 (Nucleic Acids Research, 2020)

Legend:
[1] = tested on: FAM-TTA45-TAMRA (DNA, G4) GGGTTAGGGTTAGGGTTAGGGTTAGGGTTAGGGTTAGGGTTAGGG; experiment: FRET melting; conditions: 100 mM K+ (KCl) plus 10 mM potassium phosphate, pH 7.0, 0.5 µM DNA
TTA45 [2] = experiment: CD melting, DNA stabilization; format: binding, human; conditions: 5 µM DNA, 20 µM compound, 10 mM Tris-HCl, 50 mM KCl, pH 7.4
Source text: Compounds Structures IC /µM m

A549 = experiment: Cell cytotoxicity assay (CCK8); format: cell-based, human; conditions: CCK8, 48 h treatment
Procedure: (§1) The cell growth effect of BMPQ-1 against different cell lines were tested via measuring the quantity of living cells using the Cell Counting Kit-8 (CCK8) (DOJINDO, Japan) according to the instruction. Cells were seeded in a 96-well plate (5 × 10^3 cells/well) and grown for 24 h for attachment. Then the cells were treated with various concentrations of BMPQ-1 and incubated at 37°C with 5% CO2 for 48 h. After incubation, the old medium was discarded followed by adding fresh medium containing 10% FBS in DMEM. Then 100 μl CCK-8 (10% in grow medium) was added into each well, and the cells were further incubated for 1 h. The optical density (OD) was detected at 450 nm by an automated microplate reader (Bio-Rad). The IC50 values were derived from the curves of the mean percentage of survival against the drug concentration. All the experiments were performed in triplicate.
(§2) A Cell Counting Kit-8 (CCK8) (DOJINDO, Japan) was employed to evaluate the cytotoxicity of BMPQ-1 on human alveolar basal epithelial cancer cell line (A549), human hepatocellular carcinoma cancer cell line (HepG2), human gastric cancer cell line (MGC-803), human colon adenocarcinoma (HT29), human normal liver Cells (HL-7702).

TTA = conditions: CD melting; 5 µM DNA, 20 µM compound; 10 mM Tris-HCl, 50 mM KCl, pH 7.4
Procedure: CD studies were performed on a Chirascan circular dichroism spectrophotometer (Jasco, Easton, MD, USA). A quartz cuvette with a 1 mm path length was used to record the spectra over a wavelength range of 220–320 nm with a 1 nm bandwidth. All the samples were prepared in buffer containing 10 mM Tris–HCl pH 7.4, 100 mM KCl. To ensure the concentrations of G-quadruplex units to be 20 μM, multiple G-quadruplexes forming oligonucleotides with different concentrations were used (TTA (G1) 20 μM, TTA45 (G2) 10 μM, TTA69 (G3) 6.67 μM, TTA93 (G4) 5 μM, TTA117 (G5) 4 μM, TTA141 (G6) 3.33 μM). The DNA samples were heated at 95°C for 5 min and cooled down slowly to room temperature. […] Melting curves were measured at 295 nm and the range of temperature was 4–95°C.
a Melting temperature (T ) of 5 µM DNA samples with and without 20 µM BMPQ-1 analogs in 10 mM Tris-HCl
buffer (50 mM KCl, pH 7.4) was determined by circular dichroism spectroscopy, and ΔTm/°C were derived by

[3] = tested on: TTA45 (DNA, G4) GGGTTAGGGTTAGGGTTAGGGTTAGGGTTAGGGTTAGGGTTAGGG; experiment: CD melting; conditions: 50 mM K+; 10 mM Tris-HCl pH 7.4; 5 µM DNA, 20 µM compound
[4] = tested on: TTA (DNA, G4) GGGTTAGGGTTAGGGTTAGGG; experiment: CD melting; conditions: 50 mM K+; 10 mM Tris-HCl pH 7.4; 5 µM DNA, 20 µM compound
TTA45 [5] = experiment: FRET melting assay, stabilization of TTA45; format: binding, human; conditions: for ΔTm/°C, TTA45 stabilization by FRET (Table S3) / ΔTm/°C, stabilization of TTA45 by FRET (Table S2): 0.5 µM TTA45, 10 mM K2HPO4/KH2PO4, 100 mM KCl, pH 7.0; for ΔTm/°C, TTA45 stabilization by FRET (Table S3): 20 µM compounds; for stabilization of TTA45 (in words, SAR): FRET assay
Procedure: Based on the conventional G-quadruplex ligand design ([46]), ∼400 compounds were selected from Chinese National Compound library of Peking University (PKU-CNCL). These compounds were evaluated for their ability to bind to TTA45 by Fluorescence Resonance Energy Transfer (FRET) assay (Supplementary Tables S1 and S2) ([47]). […] Compounds 21-38 were purchased to study their binding with TTA45 by FRET (Supplementary Table S3). […] page 4: Table S2. Stabilization of TTA45 as determined by FRET assays (continued). Compounds Structures ΔTm/°C Compounds Structures ΔTm/°C 23 10.3 25 14.6 […] OH 24 […] KCl, pH 7.0) was determined by FRET procedure, and Tm/°C were derived by their difference. The concentration of compounds 21-26 were 20 μM , and other compounds were 50 μM. FRET assay was carried out on the Real-Time PCR 3.2 machine (Analytik Jena, Germany). The total reaction volume was 20 μL with 0.5 μM of oligonucleotide labelled with FAM at the 3' end and TAMRA at 5' end in 10 mM K2HPO4/KH2PO4 (pH 7.0) containing 100 mM KCl. […] Then compounds with various concentrations were added into the DNA samples.

[6] = tested on: TTA45 (DNA, G4) GGGTTAGGGTTAGGGTTAGGGTTAGGGTTAGGGTTAGGGTTAGGG; experiment: CD melting; conditions: 50 mM K+ (KCl); 10 mM Tris-HCl pH 7.4; 20 µM compound, 5 µM DNA
[7] = tested on: TTA (DNA, G4) GGGTTAGGGTTAGGGTTAGGG; experiment: CD melting; conditions: 50 mM K+ (KCl); 10 mM Tris-HCl pH 7.4; 20 µM compound, 5 µM DNA
[8] = tested on: FAM-TTA45-TAMRA (DNA, G4) GGGTTAGGGTTAGGGTTAGGGTTAGGGTTAGGGTTAGGGTTAGGG; experiment: FRET melting; conditions: 100 mM K+ (KCl) plus potassium phosphate; 10 mM K2HPO4/KH2PO4 pH 7.0; 0.5 µM DNA, 20 µM compound
HepG2 = experiment: Cell cytotoxicity assay (CCK8); format: cell-based, human; conditions: CCK8, 48 h treatment
Procedure: as §1, §2

MGC-803 = experiment: Cell cytotoxicity assay (CCK8); format: cell-based, human; conditions: CCK8, 48 h treatment
Procedure: as §1, §2

HT29 = experiment: Cell cytotoxicity assay (CCK8); format: cell-based, human; conditions: CCK8, 48 h treatment
Procedure: as §1, §2

C(=N\Nc1nnc2c(n1)[nH]c1ccccc12)/c1c2ccccc2cc2ccccc12
ΔTm ([1]; 50 µM compound): 1.54 °C

CCCNC(=O)Cn1nc(-c2ccc(CC)cc2)c2cnc3cc4c(cc3c21)OCCO4
ΔTm ([1]; 50 µM compound): 1.12 °C

CCOc1ccc2c(c1)c1nnc(-c3ccccc3)c-1cn2-c1ccc(Cl)cc1
ΔTm ([1]; 20 µM compound): 0.98 ± 0.69 °C

CN(Cc1ccc2c(c1)OCO2)C(=O)c1nn(C)c2c1CN(C(=O)C1=NOC(c3cccs3)C1)CC2 (centres unmarked)
ΔTm ([1]; 50 µM compound): 0.70 °C

COc1cc2c(-c3ccccc3[N+](=O)[O-])nc3c(c(-c4ccccc4)nn3-c3ccccc3)c2cc1OC
ΔTm ([1]; 50 µM compound): 3.85 °C

COc1ccc2c(c1)c1nnc(-c3ccc(F)cc3)c-1cn2Cc1ccccc1
ΔTm ([1]; 20 µM compound): 8.38 ± 1.73 °C

Cc1cc(C)n(-c2nnc3c4ccccc4n(CC(=O)NCCc4nc5ccccc5[nH]4)c3n2)n1
ΔTm ([1]; 50 µM compound): 2.17 °C

Cc1ccc2c(c1)c1nnc(-c3ccc(F)cc3)c-1cn2Cc1ccccc1
ΔTm ([1]; 20 µM compound): 6.43 ± 0.70 °C

Clc1ccc(-n2cc3c(-c4ccccc4)nnc-3c3ccccc32)cc1
ΔTm ([1]; 20 µM compound): 2.54 ± 0.16 °C

Oc1ccccc1/C=N/Nc1nnc2c3ccccc3n(Cc3ccccc3)c2n1
ΔTm ([1]; 50 µM compound): 1.53 °C

c1cc2c(cc1Cn1cc3c(-c4ccc5c(c4)OCO5)nnc-3c3cc4c(cc31)OCO4)OCO2
ΔTm ([1]; 20 µM compound): 11.56 ± 0.36 °C

FC(F)(F)c1ccc(Cn2cc3c(-c4ccc5c(c4)OCO5)nnc-3c3cc4c(cc32)OCO4)cc1 [BMPQ-2]
ΔTm (°C) TTA45 (TTA45 [2]): 7.0 °C
IC50 (A549): 1.99 ± 0.04 µM
ΔTm ([1]; 20 µM compound): 12.59 ± 0.54 °C
ΔTm (°C) TTA (TTA): 2.3 °C
ΔTm [3]: 7.0 °C
ΔTm [4]: 2.3 °C
ΔTm/°C, TTA45 stabilization by FRET (Table S3) (TTA45 [5]): 12.59 ± 0.54 °C
ΔTm/°C, stabilization of TTA45 by FRET (Table S2) (TTA45 [5]; compounds 21-26 20 µM): 12.6 °C

Cc1ccc(Cn2cc3c(-c4ccc5c(c4)OCO5)nnc-3c3ccccc32)cc1 [BMPQ-3]
ΔTm (°C) TTA45 (TTA45 [2]): 5.1 °C
IC50 (A549): > 32 µM
ΔTm ([1]; 20 µM compound): 10.28 ± 0.15 °C
ΔTm (°C) TTA (TTA): 1.1 °C
ΔTm [6]: 5.1 °C
ΔTm [7]: 1.1 °C
ΔTm/°C, TTA45 stabilization by FRET (Table S3) (TTA45 [5]): 10.28 ± 0.15 °C
ΔTm/°C, stabilization of TTA45 by FRET (Table S2) (TTA45 [5]; compounds 21-26 20 µM): 10.3 °C

OCCn1cc2c(-c3ccc4c(c3)OCO4)nnc-2c2cc3c(cc21)OCO3 [BMPQ-4]
ΔTm (°C) TTA45 (TTA45 [2]): 4.9 °C
IC50 (A549): > 32 µM
ΔTm ([1]; 20 µM compound): 7.92 ± 0.12 °C
ΔTm (°C) TTA (TTA): 2.3 °C
ΔTm [6]: 4.9 °C
ΔTm [7]: 2.3 °C
ΔTm/°C, TTA45 stabilization by FRET (Table S3) (TTA45 [5]): 7.92 ± 0.12 °C
ΔTm/°C, stabilization of TTA45 by FRET (Table S2) (TTA45 [5]; compounds 21-26 20 µM): 7.9 °C

COc1ccc(-c2nnc3c4cc5c(cc4n(Cc4ccccc4)cc2-3)OCCO5)cc1OC [BMPQ-5]
ΔTm (°C) TTA45 (TTA45 [2]): 4.6 °C
IC50 (A549): 5.39 ± 0.46 µM
ΔTm (°C) TTA (TTA): 4.3 °C
ΔTm [8]: 14.62 ± 0.46 °C
ΔTm [6]: 4.6 °C
ΔTm [7]: 4.3 °C
ΔTm/°C, TTA45 stabilization by FRET (Table S3) (TTA45 [5]): 14.62 ± 0.46 °C
ΔTm/°C, stabilization of TTA45 by FRET (Table S2) (TTA45 [5]; compounds 21-26 20 µM): 14.6 °C

COc1ccc(-c2nnc3c4cc5c(cc4n(Cc4ccccc4)cc2-3)OCO5)cc1 [BMPQ-6]
ΔTm (°C) TTA45 (TTA45 [2]): 3.5 °C
IC50 (A549): 2.49 ± 0.03 µM
ΔTm ([1]; 20 µM compound): 11.68 ± 0.53 °C
ΔTm (°C) TTA (TTA): 1.0 °C
ΔTm [3]: 3.5 °C
ΔTm [4]: 1.0 °C
ΔTm/°C, TTA45 stabilization by FRET (Table S3) (TTA45 [5]): 11.68 ± 0.53 °C
ΔTm/°C, stabilization of TTA45 by FRET (Table S2) (TTA45 [5]; compounds 21-26 20 µM): 11.7 °C

CN(C)c1ccc(Nc2c3ccc(NC(=O)CCN4CCCC4)cc3nc3cc(NC(=O)CCN4CCCC4)ccc23)cc1 [BRACO-19, reference compound]
IC50 (HepG2): 6.25 ± 0.8 µM
IC50 (MGC-803): 7.07 ± 0.89 µM
IC50 (A549): 6.71 ± 0.45 µM
IC50 (HT29): 14.2 ± 1.78 µM

CN1CCN(CCCSc2nnc3c(n2)[nH]c2ccccc23)CC1 [Compound 3]
ΔTm ([1]; 50 µM compound): 9.04 °C
ΔTm/°C, stabilization of TTA45 by FRET (Table S2) (TTA45 [5]; compounds 50 µM): 9.04 °C

Oc1ccccc1C=NNc1nnc2c3ccccc3n(Cc3ccccc3)c2n1 [Compound 5]
ΔTm/°C, stabilization of TTA45 by FRET (Table S2) (TTA45 [5]; compounds 50 µM): 1.53 °C

CCC(Sc1nc2cc3c(cc2c(=O)n1Cc1ccc(C(=O)NCc2ccc4c(c2)OCO4)cc1)OCO3)C(=O)N1CCOCC1 (centres unmarked) [Compound 12]
ΔTm ([1]; 50 µM compound): 5.11 °C
ΔTm/°C, stabilization of TTA45 by FRET (Table S2) (TTA45 [5]; compounds 50 µM): 5.11 °C

Cc1ccc(Cn2cc(C(=O)c3ccc4c(c3)OCO4)c(=O)c3cc4c(cc32)OCO4)cc1 [Compound 15]
ΔTm/°C, stabilization of TTA45 by FRET (Table S2) (TTA45 [5]; compounds 50 µM): 0.70 °C

Cc1ccc(-c2nnc3c4cc5c(cc4n(Cc4ccccc4)cc2-3)OCO5)cc1C [Compound 27]
ΔTm ([1]; 20 µM compound): 14.08 ± 2.11 °C
ΔTm/°C, TTA45 stabilization by FRET (Table S3) (TTA45 [5]): 14.08 ± 2.11 °C

COc1cccc(Cn2cc3c(-c4ccc5c(c4)OCO5)nnc-3c3cc4c(cc32)OCO4)c1 [Compound 30]
ΔTm ([1]; 20 µM compound): 13.40 ± 1.12 °C
ΔTm/°C, TTA45 stabilization by FRET (Table S3) (TTA45 [5]): 13.40 ± 1.12 °C

COc1ccc(Cn2cc3c(-c4ccc5c(c4)OCO5)nnc-3c3cc4c(cc32)OCO4)cc1OC [Compound 31]
ΔTm ([1]; 20 µM compound): 15.15 ± 0.23 °C
ΔTm/°C, TTA45 stabilization by FRET (Table S3) (TTA45 [5]): 15.15 ± 0.23 °C

Fc1ccc(-c2nnc3c4cc5c(cc4n(Cc4ccccc4F)cc2-3)OCCO5)cc1 [Compound 33]
ΔTm ([1]; 20 µM compound): 10.42 ± 1.60 °C
ΔTm/°C, TTA45 stabilization by FRET (Table S3) (TTA45 [5]): 10.42 ± 1.60 °C

CCOc1ccc(-c2nnc3c4cc5c(cc4[nH]cc2-3)OCCO5)cc1 [Compound 34]
ΔTm/°C, TTA45 stabilization by FRET (Table S3) (TTA45 [5]): 3.55 ± 1.20 °C

COc1ccc(-c2nn(-c3ccc(F)cc3)c3c2cnc2cc4c(cc23)OCO4)cc1 [Compound 37]
ΔTm/°C, TTA45 stabilization by FRET (Table S3) (TTA45 [5]): 2.19 ± 0.91 °C
stabilization of TTA45 (in words, SAR) (TTA45 [5]): negligible stabilization

Fc1ccc(-n2nc(-c3ccccc3)c3cnc4cc5c(cc4c32)OCO5)cc1 [Compound 38]
ΔTm/°C, TTA45 stabilization by FRET (Table S3) (TTA45 [5]): 0.30 ± 0.82 °C
stabilization of TTA45 (in words, SAR) (TTA45 [5]): negligible stabilization
